ChEMBL document CHEMBL4017448, “Novel pyrazolo[1,5-a]pyridines as orally active EP1 receptor antagonists: Synthesis, structure-activity relationship studies, and biological evaluation” (Bioorg Med Chem, 2017)

Tests used:
[1] = molecular target: T1, Prostaglandin E2 receptor EP1 subtype (Rattus norvegicus, UniProt P70597); assay: Antagonist activity at rat EP1 receptor expressed in African green monkey COS1 cells assessed as decrease in prostaglandin E2-induced increase in intracellular calcium level incubated for 90 mins measured for 60 secs by Fluo 4-AM dye based fluorescence assay; assay type: functional, cell-based
T1 sequence (P70597 whole entry): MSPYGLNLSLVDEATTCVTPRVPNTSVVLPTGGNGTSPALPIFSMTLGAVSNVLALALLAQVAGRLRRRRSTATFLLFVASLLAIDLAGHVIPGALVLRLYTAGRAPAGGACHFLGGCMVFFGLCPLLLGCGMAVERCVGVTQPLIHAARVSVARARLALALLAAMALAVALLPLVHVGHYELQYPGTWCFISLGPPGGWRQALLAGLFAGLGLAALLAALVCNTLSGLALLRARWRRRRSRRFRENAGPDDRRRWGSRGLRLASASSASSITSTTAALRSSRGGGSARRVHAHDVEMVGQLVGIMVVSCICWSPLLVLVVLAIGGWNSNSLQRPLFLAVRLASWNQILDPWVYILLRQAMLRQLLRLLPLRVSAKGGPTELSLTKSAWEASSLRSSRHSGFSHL

[2] = Total clearance in rat at 1 mg/kg, iv; assay type: ADME, organism-based; details: in vivo
[3] = Volume of distribution in rat at 1 mg/kg, iv; assay type: ADME, organism-based; details: in vivo
[4] = Half life in rat at 1 mg/kg, iv; assay type: ADME, organism-based; details: in vivo
[5] = Half life in rat at 1 mg/kg, po; assay type: ADME, organism-based; details: in vivo
[6] = AUC (0 to 8 hrs) in rat at 1 mg/kg, iv; assay type: ADME, organism-based; set-up: dose 1 mg/kg, time < 8 hr, route intravenous; details: in vivo
[7] = AUC (0 to 8 hrs) in rat at 1 mg/kg, po; assay type: ADME, organism-based; set-up: time < 8 hr, dose 1 mg/kg, route oral; details: in vivo
[8] = AUC (0 to infinity) in rat at 1 mg/kg, iv; assay type: ADME, organism-based; set-up: dose 1 mg/kg, time infinity, route intravenous; details: in vivo
[9] = AUC (0 to infinity) in rat at 1 mg/kg, po; assay type: ADME, organism-based; set-up: dose 1 mg/kg, route oral, time infinity; details: in vivo
[10] = Oral bioavailability in rat at 1 mg/kg; assay type: ADME, organism-based; details: in vivo
Rattus norvegicus [11] = assay: Reduction in 17-PTP induced bladder contraction in Wistar rat assessed as change in intravesical pressure administered intravenously pretreated for 5 followed by 17-PTP challenge at every 30 mins interval for 245 mins; assay type: functional
Rattus norvegicus [12] = assay: Reduction in 17-PTP induced bladder contraction in Wistar rat assessed as change in intravesical pressure administered intraduodenal pretreated for 5 followed by 17-PTP challenge at every 30 mins interval for 245 mins; assay type: functional

| SMILES | IC50 [1] [nM] | further results |
| --- | --- | --- |
| COc1ccccc1-c1cc2cc(Cl)cc(Cn3nc(C(=O)O)cc3C)n2n1 | 840 | – |
| CCCc1cc(C(=O)O)nn1Cc1cc(Cl)cc2cc(-c3ccccc3)nn12 | 97 | – |
| Cc1cc(C(=O)O)nn1Cc1cc(Cl)cc2cc(-c3ccccc3Cl)nn12 | 220 | – |
| CC(=O)c1cc(Cn2nc(C(=O)O)cc2C)n2nc(-c3ccccc3)cc2c1 | 600 | – |
| Cc1cc(C(=O)O)nn1Cc1cc(Cl)cc2cc(C3CCCC3)nn12 | 410 | – |
| CCc1cc(C(=O)O)nn1Cc1cc(Cl)cc2cc(-c3ccccc3)nn12 | 300 | – |
| Cc1cc(C(=O)O)nn1Cc1cc(Cl)cc2cc(-c3ccc(Cl)cc3)nn12 | 290 | – |
| Cc1cc(C(=O)O)nn1Cc1cc(Cl)cc2cc(C(C)(C)C)nn12 | 2100 | – |
| Cc1cc(C(=O)O)nn1Cc1cc(Cl)cc2cc(C3CCCCC3)nn12 | 71 | – |
| COc1cccc(-c2cc3cc(Cl)cc(Cn4nc(C(=O)O)cc4C)n3n2)c1 | 110 | – |
| Cc1cc(C(=O)O)nn1Cc1cc(Cl)cc2cc(-c3ccccc3)oc12 | 22 | – |
| COc1ccc(-c2cc3cc(Cl)cc(Cn4nc(C(=O)O)cc4C)n3n2)cc1 | 410 | – |
| CCCCc1cc2cc(Cl)cc(Cn3nc(C(=O)O)cc3C)n2n1 | 1900 | – |
| Cc1cc(C(=O)O)nn1Cc1cc(Cl)cc2cc(-c3cccc(Cl)c3)nn12 | 150 | – |
| CC(C)Cc1cc(C(=O)O)nn1Cc1cc(Cl)cc2cc(-c3ccccc3)nn12 | 2000 | – |
| Cc1cc(C(=O)O)nn1Cc1cc(Cl)cc2cc(CC(C)C)nn12 | 1400 | – |
| O=C(O)c1ccn(Cc2cc(Cl)cc3cc(-c4ccccc4)nn23)c1 | 190 | – |
| Cc1cc(C(=O)O)nn1Cc1cc(Cl)cc2cc(C3CC3)nn12 | 180 | – |
| O=C(O)c1ccn(Cc2cc(Cl)cc3cc(-c4ccccc4)nn23)n1 | 89 | – |
| CCCC/C=C/c1cc(Cn2nc(C(=O)O)cc2C)n2nc(-c3ccccc3)cc2c1 | 1500 | – |
| CC(C)c1cc(C(=O)O)nn1Cc1cc(Cl)cc2cc(-c3ccccc3)nn12 | 1200 | – |

Further lines, with some results ahead:

| IC50 [1] [nM] | SMILES | further results |
| --- | --- | --- |
| 1000 | Cc1cc(C(=O)O)nn1Cc1cc(C#N)cc2cc(-c3ccccc3)nn12 | – |
| 9600 | COc1cc(Cn2nc(C(=O)O)cc2C)n2nc(-c3ccccc3)cc2c1 | – |
| 2600 | Cc1cc(C(=O)O)nn1Cc1ccc(Cl)c2cc(-c3ccccc3)nn12 | – |
| 1500 | COc1ccc2cc(-c3ccccc3)nn2c1Cn1nc(C(=O)O)cc1C | – |
| 360 | C=Cc1cc(Cn2nc(C(=O)O)cc2C)n2nc(-c3ccccc3)cc2c1 | – |
| 120 | Cc1cc(C(=O)O)nn1Cc1cccc2cc(-c3ccccc3)nn12 | – |
| 9.4 | Cc1cc(C(=O)O)nn1Cc1cc(Cl)cc2cc(-c3ccccc3)nn12 | clearance [2]: 2.59 mL/min/kg; Vd [3]: 0.908 L/kg; half-life [4]: 4.99 h; half-life [5]: 4.28 h; AUC(0-t) at 8 h [6]: 5010 ng·h/mL; AUC(0-t) at 8 h [7]: 4870 ng·h/mL; AUC(0-inf) [8]: 7470 ng·h/mL; AUC(0-inf) [9]: 6030 ng·h/mL; bioavailability [10]: 81%; Activity (Rattus norvegicus [11]): Dose-dependent effect; Activity (Rattus norvegicus [12]): Dose-dependent effect |
| 540 | Cc1cc(C(=O)O)nn1Cc1c(Cl)ccc2cc(-c3ccccc3)nn12 | – |
| 450 | Cc1cc(Cn2nc(C(=O)O)cc2C)n2nc(-c3ccccc3)cc2c1 | – |
| 1100 | COc1ccc(Cn2nc(C(=O)O)cc2C)n2nc(-c3ccccc3)cc12 | – |
| 300 | Cc1cc(C(=O)O)nn1Cc1cc(C(F)(F)F)cc2cc(-c3ccccc3)nn12 | – |
